Experimental data as given in patent US12403111B2, “Compositions and methods for treating neurodevelopmental disorders” (SynGAP Research Fund, priority 2024, dated 2025).
“Also recorded” adds a separate entry of the source.

Legend:
[1] = tested on: raskol Drosophila eye phenotype; assay: Eye phenotype recovery assay (eye size) over several drug concentrations, SYNGAP1 (raskol) knockdown flies; type: in vivo, Drosophila melanogaster; conditions: for Effect on eye phenotype recovery (eye size): Example 38, multiple drug dilutions vs control
Source text: Increased eye size over control (dark grey) indicates improved phenotype. […]
FIG. 42B depicts the eye size effect of NADL, L-Leucine and beta-hydroxyisovaleric acid on raskol Drosophila eye phenotype over multiple drug dilutions from Example 38.
A prioritized list of top hits was developed to further validate. Priority was place on actionable, safe, and biologically relevant drugs. To validate a top hit, the effect of each drug was tested over three doses. Three concentrations (1, 5, and 25 uM) were compared to a no drug control.

[2] = molecular target: mTORC1 (Homo sapiens, UniProt P42345); conditions: cited from earlier work
[3] = tested on: raskol Drosophila eye phenotype; assay: Drug screen (Prestwick Chemical Library) for rescue of degenerate eye in Drosophila model of SYNGAP1; type: in vivo, Drosophila melanogaster; conditions: screen of over 1520 drugs; Z scores >1 indicated improved phenotype
Source text: The invention is also directed in part to a Drosophila melanogaster (fruit fly) model of SYNGAP1. The model is based on eye-specific RNAi knockdown of SYNGAP1, which is called raskol gene in flies. RNAi knockdown of the raskol gene in the eye of Drosophila results in a smaller, degenerate eye (FIG. 1). In one embodiment, the model is used to screen drug that rescue the degenerate eye phenotype in Drosophila melanogaster.
FIG. 7 is a graph of the Z-score of chemical effects on raskol Drosophila eye phenotype. Z scores >1 indicated improved phenotype; Z scores <1 indicated worsened phenotype. The arrow indicates the Z-score positioning of N-Acetyl-L-leucine (NALL).
Drosophila (fruit fly) model of SYNGAP1 was generated. This model is partial loss of function of SYNGAP1, similar to what is observed in humans.
To generate the model, fruit flies were engineered to eliminate SYNGAP1 gene expression in the eye. In flies, the gene is called raskol but herein referred to as SYNGAP1 for clarity. Eye-specific knockdown of SYNGAP1 using RNAi was used. RNAi knockdown of SYNGAP in the eye results in a smaller, disorganized and degenerate eye (FIG. 5).
The model allows for ascertaining therapeutic efficacy of a compound. The efficacy is evidenced by restoration of normal eye appearance upon treatment with the compound. […]

[4] = tested on: raskol Drosophila; assay: Induced seizures in raskol Drosophila; type: in vivo, Drosophila melanogaster; conditions: compared to untreated or NADL treated raskol Drosophila
Source text: In addition to the degenerate eye phenotype, raskol Drosophila are prone to induced seizures, as compared to wild type Drosophila.

[5] = tested on: tyrosine catabolic process; assay: RNAseq of untreated vs NALL-treated raskol Drosophila; type: in vivo, Drosophila melanogaster; conditions: NALL-treated vs untreated raskol flies; TAT, HPD, FAA
Method: Enzymes TAT, HPD, FAA highlight the differences in RNA expression in the presence of NALL treatment; molecules are all associated with the tyrosine catabolic process.
Finally, RNAseq was performed to compare gene regulation differences between raskol Drosophila untreated and NALL-treated flies.

[6] = molecular target: LAT1 (Homo sapiens, UniProt Q01650); conditions: cited from earlier work
LAT1, sequence (Q01650 whole entry, species assumed): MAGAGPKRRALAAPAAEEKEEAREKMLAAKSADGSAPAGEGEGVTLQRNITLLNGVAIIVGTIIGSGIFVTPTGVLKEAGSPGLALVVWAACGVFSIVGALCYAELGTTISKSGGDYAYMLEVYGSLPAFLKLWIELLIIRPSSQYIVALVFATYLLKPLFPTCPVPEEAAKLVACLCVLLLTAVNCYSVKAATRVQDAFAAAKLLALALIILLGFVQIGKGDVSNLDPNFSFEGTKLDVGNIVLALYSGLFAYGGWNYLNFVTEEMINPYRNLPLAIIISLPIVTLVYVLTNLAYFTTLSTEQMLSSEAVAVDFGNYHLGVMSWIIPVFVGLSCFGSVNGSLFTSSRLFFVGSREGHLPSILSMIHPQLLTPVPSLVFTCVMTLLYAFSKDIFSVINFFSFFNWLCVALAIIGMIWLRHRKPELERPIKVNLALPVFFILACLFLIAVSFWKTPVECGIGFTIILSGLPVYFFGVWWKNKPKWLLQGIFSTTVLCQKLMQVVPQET
LAT1, sequence (P08195 102-630 partner, species assumed): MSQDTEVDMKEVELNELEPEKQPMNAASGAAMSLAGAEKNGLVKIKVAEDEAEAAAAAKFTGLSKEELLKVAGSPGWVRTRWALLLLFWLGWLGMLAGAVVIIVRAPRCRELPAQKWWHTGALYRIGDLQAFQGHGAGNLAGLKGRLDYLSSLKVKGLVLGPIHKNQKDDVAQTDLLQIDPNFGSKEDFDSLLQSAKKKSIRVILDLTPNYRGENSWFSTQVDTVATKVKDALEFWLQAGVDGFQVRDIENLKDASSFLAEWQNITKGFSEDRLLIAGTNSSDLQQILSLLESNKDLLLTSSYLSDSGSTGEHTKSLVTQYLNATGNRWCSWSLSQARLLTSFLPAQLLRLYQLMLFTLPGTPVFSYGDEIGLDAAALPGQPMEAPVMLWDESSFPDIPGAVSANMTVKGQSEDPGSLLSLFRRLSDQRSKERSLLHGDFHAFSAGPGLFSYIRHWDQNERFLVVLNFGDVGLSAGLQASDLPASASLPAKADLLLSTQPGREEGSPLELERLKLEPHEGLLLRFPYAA

[7] = tested on: mice with experimental traumatic brain injury; conditions: cited from earlier work
[8] = tested on: patients with cerebellar ataxia; conditions: 12 out of 20 individuals; cited from earlier work
[9] = tested on: animals following unilateral labyrinthectomy; conditions: only minor effects on normal vestibular function; cited from earlier work

CC(C)C[C@H](N)C(=O)O [L-Leucine]
Effect on eye phenotype recovery (eye size) [1]: do not have a significant effect; also recorded: neither NADL nor L-Leucine have a significant effect | Effect on mTORC1 [2]: activates

CC(=O)N[C@H](CC(C)C)C(=O)O [NADL, N-acetyl-D-leucine]
Effect on eye phenotype recovery (eye size) [1]: do not have a significant effect; also recorded: neither NADL nor L-Leucine have a significant effect

CC(=O)N[C@@H](CC(C)C)C(=O)O [NALL, N-acetyl-L-leucine]
Z-score of chemical effects on raskol Drosophila eye phenotype [3]: 1.35 | Effect on eye phenotype recovery (eye size) [1]: significant effect on phenotype recovery, as was observed with NALL | Eye phenotype in validation of top hit ([1]; three concentrations (1, 5, and 25 uM) vs no drug control): larger, more organized, less degenerate eye | Recovery time after induced seizures [4]: faster recovery time | Gene regulation differences by RNAseq [5]: Down regulated genes were enriched for tyrosine catabolic processes | Binding or blocking of LAT1 [6]: neither binds nor blocks | Effect on mTORC1 [2]: inhibit or negatively regulate | Autophagy in cortical tissue ([7]; reduced accumulation of autophagosome markers vs controls): increase in autophagy | Motor and cognitive outcomes ([7]; treated mice vs controls): significant improvement in motor and cognitive outcomes

CC(=O)N[C@@H](CC(C)C)C(=O)O [acetyl-leucine]
Individuals with significant improvements in ataxia [8]: 60% | Vestibular compensation [9]: accelerate vestibular compensation

CC(C)(O)CC(=O)O [beta-hydroxyisovaleric acid, Beta-hydroxyisovaleric acid]
Effect on eye phenotype recovery (eye size) [1]: do not have a significant effect
